The record followed here is patent publication US9217014B2, “Antifungal agents and uses thereof” (Cidara Therapeutics, Inc., priority 2011, dated 2015).

SMILES strings stand for the structures. Read-outs that look alike come from different tables or passages of the source.

Data set [1] is described as follows: Pharmacokinetics in beagle dogs, intravenous. The format is in vivo. As to conditions: for Vd / half-life: dog. The method, then: The test articles were administered to beagle dogs weighing approximately 6-10 kg. Each test article was dosed at 1.4 mg/kg in aqueous saline (with or without 0.5% Tween) over course of 1-10 minutes. […] The dogs were fasted at least 12 hours prior to each dosing and offered food after the 4-hour blood sample was taken; water was withheld for 1 hour prior to and 4 hours following each dosing event. The dose for each animal was based on its most recent body weight. The test article was injected intravenously via a catheter placed in the cephalic vein as a slow bolus.
Blood was collected via the jugular vein. All blood samples (˜1 mL each) were collected into K3EDTA tubes. Following blood collection, the samples were immediately inverted several times and were held on wet ice pending centrifugation. The samples were centrifuged within ˜30 minutes of collection under refrigeration (˜5° C. for ˜10 minutes at ˜2000 g) to obtain plasma. The plasma was frozen immediately on dry ice after separation. The plasma samples were stored at approximately −70° C. until analysis.
Plasma (100 μL) was precipitated with 400 μL of 0.1% formic acid in acetonitrile containing the internal standard (100 ng/mL pneumocandin). The samples were then capped and vortexed for about 30 seconds followed by centrifugation at 14,000 rpm at room temperature for 10 minutes. Following centrifugation 200 μL of supernatant was transferred to plastic autosampler vials containing 200 μL of 0.1% formic acid in water and vortexed. Samples were then analyzed by LCMSMS.
All pharmacokinetic calculations were performed using WinNonlin version 4.1 (Pharsight Corp) by noncompartmental analysis.

The subject of another data set is C. albicans R303. In words: mouse candidiasis infection model, IP administration, kidney fungal burden. The format is in vivo. The note with it: for Mean log10 CFU/kidneys (±SEM): kidneys 24 h after infection; for overall performance in reducing C. albicans CFUs in the kidneys of the mice: conclusion over all runs. Here is the method:
The objective of these studies was to evaluate the efficacy of test compounds in the mouse candidiasis infection model. Amounts of test articles are uncorrected.
The strain, C. albicans R303 was transferred from frozen storage onto Sabauroud dextrose agar (SDA) plates and grown for ˜24 hr at 35° C. The inoculum was prepared by transferring colonies from the plate to phosphate buffered saline (PBS) and the concentration adjusted to approximately 10^6 CFU/mL with the aid of a spectrophotometer. The stock was diluted 1:9 to prepare the inoculum. Prior to each run the concentration was verified using the dilution plate count method.
Female CD-1 mice were used in this study. The animals were approximately seven-weeks-old at the start of the study and weighed about 15-30 g.
Mice were made neutropenic with IP injections of cyclophosphamide (150 mg/kg in 10 mL/kg) at 4 and 1 day before inoculation. Each animal was inoculated with the appropriate concentration by injecting 0.1 mL of inoculum into a tail vein. The test compounds were administered IP at 2 hr after infection.
In a typical procedure, the kidneys were collected from four mice in control group 1 (untreated) at 2 hr after infection, and from another four mice in control group 2 (untreated) at 24 hr after infection. Kidneys were removed aseptically from each mouse and were combined in a sterile tube. An aliquot (2 mL) of sterile PBS was added to each tube and the contents homogenized with a tissue homogenizer (Polytron 3100). Serial dilutions of the tissue homogenates were conducted and 0.1 mL aliquots were spread on SDA plates and the plates incubated at 35° C. overnight. The CFU/kidneys were determined from colony counts. Data were analyzed using one-way ANOVA with either the Tukey-Kramer Multiple Comparisons Test or Dunnett Test (GraphPad InStat version 3.06, GraphPad Software, San Diego, Calif.).
The data reported below are the average of four mice. Each run included a separate control and each is tabulated separately.

Compound `CCCCCOc1ccc(-c2ccc(-c3ccc(C(=O)N[C@H]4C[C@@H](O)C(OCCOCCN)NC(=O)C5[C@@H](O)[C@@H](C)CN5C(=O)C([C@@H](C)O)NC(=O)C([C@H](O)[C@@H](O)c5ccc(O)cc5)NC(=O)C5C[C@@H](O)CN5C(=O)C([C@@H](C)O)NC4=O)cc3)cc2)cc1` (some centres unmarked) [compound 5] gave a Vd in data set [1] (beagle, in vivo, iv, 1.4 mg/kg) of 0.627 ± 0.0139 L/kg. Also, in data set [1] (beagle, in vivo, iv, 1.4 mg/kg), the half-life is 33.7 ± 3.28 h. Also, the log reduction at 0.5 mg/kg in the data set on C. albicans R303 (Candida albicans, R303, ip, 24 h, Second run, IP 0.5 mg/kg, read-out: Difference from 24-h control) amounted to 1.22. The log reduction at 1.5 mg/kg with C. albicans R303 (Candida albicans, R303, ip, 24 h, Second run, IP 1.5 mg/kg, read-out: Difference from 24-h control) came to 4.15. The log reduction at 4.5 mg/kg with C. albicans R303 (Candida albicans, R303, ip, 24 h, Second run, IP 4.5 mg/kg, read-out: Difference from 24-h control) came out at 4.87. Besides, the “Mean log10 CFU/kidneys (±SEM)” value in the data set on C. albicans R303 (Second run, IP 0.5 mg/kg) worked out at 3.65 ± 0.10 log10 CFU/kidneys; in the data set with C. albicans R303 (Second run, IP 1.5 mg/kg), 0.73 ± 0.42 log10 CFU/kidneys; in the data set on C. albicans R303 (Second run, IP 4.5 mg/kg) it was 0.00 ± 0.00 log10 CFU/kidneys. Also, the “overall performance in reducing C. albicans CFUs in the kidneys of the mice” value with C. albicans R303 is “performed strongly”.
As for `CCCCCOc1ccc(-c2ccc(-c3ccc(C(=O)N[C@H]4C[C@@H](O)C(NCCNCCO)NC(=O)C5[C@@H](O)[C@@H](C)CN5C(=O)C([C@@H](C)O)NC(=O)C([C@H](O)[C@@H](O)c5ccc(O)cc5)NC(=O)C5C[C@@H](O)CC5C(=O)C([C@@H](C)O)NC4=O)cc3)cc2)cc1` (some centres unmarked) [compound 18], the CI in data set [1] (1.4 mg/kg intravenous slow bolus, mean ± SEM, n = 4 beagle dogs) was 0.0226 ± 0.00108 L/h/kg. Besides, the half-life in data set [1] (plasma, 1.4 mg/kg intravenous slow bolus, mean ± SEM, n = 4 beagle dogs, read-out: T ½ (converted)) was 21 ± 1.16 h. Besides, the Vd in data set [1] (plasma, 1.4 mg/kg intravenous slow bolus, mean ± SEM, n = 4 beagle dogs, read-out: Vz) is 0.687 ± 0.0584 L/kg. Moreover, the log reduction at 0.5 mg/kg in the data set with C. albicans R303 (Candida albicans, R303, ip, 24 h, Fourth run, IP 0.5 mg/kg, read-out: Difference from 24-h control) was 2.56. Further, the log reduction at 1.5 mg/kg with C. albicans R303 (Candida albicans, R303, ip, 24 h, Fourth run, IP 1.5 mg/kg, read-out: Difference from 24-h control) was found to be 3.95. For the same compound, the “Mean log10 CFU/kidneys (±SEM)” value is recorded as 2.54 ± 0.17 log10 CFU/kidneys in the data set on C. albicans R303 (Fourth run, IP 0.5 mg/kg) and 1.15 ± 0.09 log10 CFU/kidneys in the data set on C. albicans R303 (Fourth run, IP 1.5 mg/kg). The “overall performance in reducing C. albicans CFUs in the kidneys of the mice” value with C. albicans R303 is reported as “performed strongly”.
